Assay results: ChEMBL document CHEMBL1145874, “Discovery and SAR of novel, potent and selective protein tyrosine phosphatase 1B inhibitors” (Bioorg Med Chem Lett, 2003)
pKi: −log10 of the molar value.

Columns and labels:
[1] = biological target: T1, Tyrosine-protein phosphatase non-receptor type 1 (Homo sapiens, UniProt P18031); test: Inhibition of Protein-tyrosine phosphatase 1B (PTP1B)
T1 sequence (P18031 whole entry): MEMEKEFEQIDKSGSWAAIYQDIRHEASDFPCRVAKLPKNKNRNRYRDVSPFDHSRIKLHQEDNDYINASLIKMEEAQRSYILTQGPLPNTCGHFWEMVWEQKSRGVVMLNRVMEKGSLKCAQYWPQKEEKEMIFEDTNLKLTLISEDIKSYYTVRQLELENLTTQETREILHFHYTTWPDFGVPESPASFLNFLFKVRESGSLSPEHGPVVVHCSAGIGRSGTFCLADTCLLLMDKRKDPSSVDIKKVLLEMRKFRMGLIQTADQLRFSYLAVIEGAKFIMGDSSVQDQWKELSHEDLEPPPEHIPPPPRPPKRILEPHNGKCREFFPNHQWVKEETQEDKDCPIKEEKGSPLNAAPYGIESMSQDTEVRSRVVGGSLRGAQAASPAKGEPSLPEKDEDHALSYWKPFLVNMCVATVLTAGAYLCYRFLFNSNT

[2] = biological target: Tyrosine-protein phosphatase non-receptor type 2 (Homo sapiens, UniProt P17706); test: Inhibition of T-cell Protein Tyrosine Phosphatase (TCPTP)
Chain of Tyrosine-protein phosphatase non-receptor type 2 (P17706 whole entry, looked up): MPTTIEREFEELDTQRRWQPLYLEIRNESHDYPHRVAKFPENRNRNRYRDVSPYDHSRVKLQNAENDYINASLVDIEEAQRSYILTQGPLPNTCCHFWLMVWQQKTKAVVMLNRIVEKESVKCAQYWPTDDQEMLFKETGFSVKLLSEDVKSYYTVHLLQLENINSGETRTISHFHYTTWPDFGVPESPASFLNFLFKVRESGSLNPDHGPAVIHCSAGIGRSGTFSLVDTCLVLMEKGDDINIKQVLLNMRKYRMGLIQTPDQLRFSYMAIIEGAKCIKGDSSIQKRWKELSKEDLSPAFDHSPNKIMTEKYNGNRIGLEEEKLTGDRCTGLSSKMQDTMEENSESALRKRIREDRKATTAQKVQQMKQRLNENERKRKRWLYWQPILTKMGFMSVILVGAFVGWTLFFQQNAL

[3] = biological target: T2, Receptor-type tyrosine-protein phosphatase C (Homo sapiens, UniProt P08575); test: Inhibitory potency against CD45 Phosphatase
T2 sequence (P08575 whole entry): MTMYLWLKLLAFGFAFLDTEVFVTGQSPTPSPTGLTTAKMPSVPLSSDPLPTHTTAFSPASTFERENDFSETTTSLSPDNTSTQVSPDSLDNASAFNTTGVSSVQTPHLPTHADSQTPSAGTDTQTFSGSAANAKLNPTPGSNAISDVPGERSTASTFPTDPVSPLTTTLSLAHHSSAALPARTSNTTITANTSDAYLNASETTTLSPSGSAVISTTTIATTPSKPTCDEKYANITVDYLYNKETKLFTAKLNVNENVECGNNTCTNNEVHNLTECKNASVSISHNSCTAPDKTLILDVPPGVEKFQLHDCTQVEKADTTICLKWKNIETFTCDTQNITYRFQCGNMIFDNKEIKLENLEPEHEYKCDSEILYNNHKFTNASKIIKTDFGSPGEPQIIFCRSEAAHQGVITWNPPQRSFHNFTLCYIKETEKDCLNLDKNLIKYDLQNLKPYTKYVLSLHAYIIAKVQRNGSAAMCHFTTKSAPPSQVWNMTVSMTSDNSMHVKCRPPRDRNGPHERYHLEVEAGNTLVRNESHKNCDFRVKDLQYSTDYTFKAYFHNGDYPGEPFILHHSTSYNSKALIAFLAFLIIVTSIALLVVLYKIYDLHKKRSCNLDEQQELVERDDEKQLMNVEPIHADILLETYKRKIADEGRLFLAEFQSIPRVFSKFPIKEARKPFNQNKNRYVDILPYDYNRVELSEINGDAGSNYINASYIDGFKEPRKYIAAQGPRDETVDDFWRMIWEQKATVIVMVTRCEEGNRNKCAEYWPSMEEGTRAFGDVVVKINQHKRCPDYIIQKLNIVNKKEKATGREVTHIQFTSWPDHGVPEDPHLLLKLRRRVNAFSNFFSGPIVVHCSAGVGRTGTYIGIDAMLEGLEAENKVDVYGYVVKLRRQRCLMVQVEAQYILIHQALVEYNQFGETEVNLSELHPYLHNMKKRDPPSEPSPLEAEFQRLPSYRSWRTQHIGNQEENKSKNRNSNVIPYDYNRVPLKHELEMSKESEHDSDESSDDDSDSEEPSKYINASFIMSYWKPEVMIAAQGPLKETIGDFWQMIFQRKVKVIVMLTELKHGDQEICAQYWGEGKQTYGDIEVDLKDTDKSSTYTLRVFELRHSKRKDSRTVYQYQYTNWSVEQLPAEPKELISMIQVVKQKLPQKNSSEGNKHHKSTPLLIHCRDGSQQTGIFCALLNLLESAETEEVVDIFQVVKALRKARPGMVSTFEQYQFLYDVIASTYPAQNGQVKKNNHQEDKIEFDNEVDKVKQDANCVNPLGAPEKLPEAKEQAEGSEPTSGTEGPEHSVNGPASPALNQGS

[4] = biological target: T3, Tyrosine-protein phosphatase non-receptor type 11 (Homo sapiens, UniProt Q06124); test: Inhibitory potency against Tyrosine phosphatase SHP2
T3 sequence (Q06124 whole entry): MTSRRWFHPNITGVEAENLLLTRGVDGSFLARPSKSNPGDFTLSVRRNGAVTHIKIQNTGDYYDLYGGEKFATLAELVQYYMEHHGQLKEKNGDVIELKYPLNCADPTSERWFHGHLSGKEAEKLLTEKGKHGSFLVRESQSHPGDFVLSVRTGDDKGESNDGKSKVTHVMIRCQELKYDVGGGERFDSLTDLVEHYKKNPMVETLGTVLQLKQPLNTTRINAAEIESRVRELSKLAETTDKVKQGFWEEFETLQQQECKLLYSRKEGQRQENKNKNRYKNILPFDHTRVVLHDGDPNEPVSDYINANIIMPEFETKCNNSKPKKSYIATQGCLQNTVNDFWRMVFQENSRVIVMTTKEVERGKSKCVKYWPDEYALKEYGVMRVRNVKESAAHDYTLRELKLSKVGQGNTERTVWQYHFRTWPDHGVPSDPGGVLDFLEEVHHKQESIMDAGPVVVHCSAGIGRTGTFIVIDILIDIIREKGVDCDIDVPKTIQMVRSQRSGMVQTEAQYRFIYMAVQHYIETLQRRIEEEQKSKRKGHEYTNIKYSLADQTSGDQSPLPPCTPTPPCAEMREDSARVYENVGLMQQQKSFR

[5] = biological target: T4, M-phase inducer phosphatase 3 (Homo sapiens, UniProt P30307); test: Inhibitory potency against Cell division cycle 25 degree C
T4 sequence (P30307 whole entry): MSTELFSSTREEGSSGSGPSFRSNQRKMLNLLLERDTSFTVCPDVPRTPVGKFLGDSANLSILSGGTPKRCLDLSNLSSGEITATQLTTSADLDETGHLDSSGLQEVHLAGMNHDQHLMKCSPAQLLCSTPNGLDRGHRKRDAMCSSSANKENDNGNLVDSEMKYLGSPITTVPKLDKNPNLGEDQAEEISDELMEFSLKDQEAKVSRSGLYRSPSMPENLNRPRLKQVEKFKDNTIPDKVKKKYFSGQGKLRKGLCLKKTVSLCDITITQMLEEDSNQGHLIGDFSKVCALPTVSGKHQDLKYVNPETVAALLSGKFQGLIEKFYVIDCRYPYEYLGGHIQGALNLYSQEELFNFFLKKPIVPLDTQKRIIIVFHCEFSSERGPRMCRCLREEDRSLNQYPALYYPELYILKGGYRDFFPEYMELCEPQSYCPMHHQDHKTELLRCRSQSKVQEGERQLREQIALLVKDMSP

[6] = biological target: Receptor-type tyrosine-protein phosphatase F (Homo sapiens, UniProt P10586); test: Inhibitory potency against LAR
Chain of Receptor-type tyrosine-protein phosphatase F (P10586 whole entry): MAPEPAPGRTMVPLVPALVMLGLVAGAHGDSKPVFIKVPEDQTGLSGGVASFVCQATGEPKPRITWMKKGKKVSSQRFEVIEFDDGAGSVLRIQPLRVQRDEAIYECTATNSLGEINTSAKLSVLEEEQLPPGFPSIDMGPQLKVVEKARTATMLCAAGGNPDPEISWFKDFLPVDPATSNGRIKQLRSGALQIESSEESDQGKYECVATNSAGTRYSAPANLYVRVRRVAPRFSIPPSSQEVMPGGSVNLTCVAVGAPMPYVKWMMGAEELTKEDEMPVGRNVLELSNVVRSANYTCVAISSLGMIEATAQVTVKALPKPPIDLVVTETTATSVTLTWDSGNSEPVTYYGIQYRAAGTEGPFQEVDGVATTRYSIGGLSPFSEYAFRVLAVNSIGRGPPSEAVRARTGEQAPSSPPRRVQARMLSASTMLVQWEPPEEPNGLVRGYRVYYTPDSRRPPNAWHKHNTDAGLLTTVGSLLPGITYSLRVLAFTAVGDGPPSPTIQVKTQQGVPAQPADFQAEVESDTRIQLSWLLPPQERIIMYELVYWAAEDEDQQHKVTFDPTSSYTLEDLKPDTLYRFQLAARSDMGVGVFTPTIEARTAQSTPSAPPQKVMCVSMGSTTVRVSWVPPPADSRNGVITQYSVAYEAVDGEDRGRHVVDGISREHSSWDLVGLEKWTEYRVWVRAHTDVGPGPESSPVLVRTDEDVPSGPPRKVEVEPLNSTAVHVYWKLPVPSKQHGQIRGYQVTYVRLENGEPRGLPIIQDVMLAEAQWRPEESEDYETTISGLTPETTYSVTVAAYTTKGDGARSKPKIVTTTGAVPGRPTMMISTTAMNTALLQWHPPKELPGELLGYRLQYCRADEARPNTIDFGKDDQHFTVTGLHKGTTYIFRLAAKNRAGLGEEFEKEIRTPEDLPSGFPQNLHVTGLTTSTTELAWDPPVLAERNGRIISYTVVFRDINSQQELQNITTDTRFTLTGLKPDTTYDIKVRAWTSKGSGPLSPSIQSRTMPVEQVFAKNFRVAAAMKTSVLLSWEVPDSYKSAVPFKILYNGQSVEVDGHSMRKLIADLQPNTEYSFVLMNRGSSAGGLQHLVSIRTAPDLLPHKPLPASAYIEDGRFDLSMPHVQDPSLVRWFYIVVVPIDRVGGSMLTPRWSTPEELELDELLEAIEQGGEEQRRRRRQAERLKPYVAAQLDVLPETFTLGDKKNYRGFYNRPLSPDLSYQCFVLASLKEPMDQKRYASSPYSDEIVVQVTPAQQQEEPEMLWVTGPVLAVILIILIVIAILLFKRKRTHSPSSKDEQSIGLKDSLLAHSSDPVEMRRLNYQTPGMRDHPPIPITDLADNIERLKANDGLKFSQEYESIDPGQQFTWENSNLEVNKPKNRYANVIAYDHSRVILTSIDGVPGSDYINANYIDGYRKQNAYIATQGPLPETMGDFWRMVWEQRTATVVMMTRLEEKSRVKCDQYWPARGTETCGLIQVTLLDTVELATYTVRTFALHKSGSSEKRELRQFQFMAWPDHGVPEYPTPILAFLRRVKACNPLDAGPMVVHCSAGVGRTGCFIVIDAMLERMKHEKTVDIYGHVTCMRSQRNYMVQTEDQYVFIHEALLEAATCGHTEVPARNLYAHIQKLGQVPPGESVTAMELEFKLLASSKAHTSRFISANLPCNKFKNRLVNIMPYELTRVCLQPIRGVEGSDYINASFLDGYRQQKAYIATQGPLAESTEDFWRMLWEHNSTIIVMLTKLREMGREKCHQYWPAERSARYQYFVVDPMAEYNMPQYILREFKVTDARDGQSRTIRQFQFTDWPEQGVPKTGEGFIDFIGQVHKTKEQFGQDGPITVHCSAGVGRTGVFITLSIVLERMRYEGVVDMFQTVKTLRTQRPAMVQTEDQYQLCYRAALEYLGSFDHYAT

Row | SMILES | pKi [1] | pKi [2] | pKi [3] | pKi [4] | pKi [5] | pKi [6]
1 | COC(=O)c1c(O)cccc1OCCCCNC(=O)C(Cc1ccc(OC(C(N)=O)C(=O)O)cc1)NC(=O)OC(C)(C)C (stereo unspecified) | 4.86 | 4.10 | – | – | – | –
2 | COC(=O)c1c(O)cccc1OCCCCNC(=O)C(Cc1ccc(OC(C(=O)O)C(=O)O)cc1)NC(=O)OC(C)(C)C (stereo unspecified) | – | 4.61 | < 4.52 | < 4.52 | < 4.52 | < 4.52
3 | COC(=O)c1c(O)cccc1OCCCCNC(=O)[C@H](Cc1ccc(OC(C)C(=O)O)c(C(=O)O)c1)NC(=O)[C@H](Cc1ccccc1)NC(=O)OC(C)(C)C (stereo partly specified) | 6.80 | 5.71 | < 4.52 | < 4.52 | < 4.52 | < 4.52
4 | CCC(CC(=O)O)N(C(=O)C(=O)O)c1ccc(C[C@H](NC(=O)OC(C)(C)C)C(=O)NCCCCOc2cccc(O)c2C(=O)OC)cc1 (stereo partly specified) | 5.74 | – | – | – | – | –
5 | COC(=O)c1c(O)cccc1OCCCCNC(=O)[C@H](Cc1ccc(OCC(=O)O)cc1)NC(=O)OC(C)(C)C | 3.66 | < 3.70 | – | – | – | –
6 | COC(=O)c1c(O)cccc1OCCCCNC(=O)[C@H](Cc1ccc(N(CC(C(=O)O)c2ccccc2)C(=O)C(=O)O)cc1)NC(=O)OC(C)(C)C (stereo partly specified) | 4.82 | 4.01 | – | – | – | –
7 | COC(=O)c1c(O)cccc1OCCCCNC(=O)C(Cc1ccc(OC(C(=O)O)C(=O)NC2CC2)cc1)NC(=O)OC(C)(C)C (stereo unspecified) | 5.08 | < 3.70 | – | – | – | –
8 | COC(=O)c1c(O)cccc1OCCCCNC(=O)[C@H](Cc1ccc(N(CCC(=O)O)C(=O)C(=O)O)cc1)NC(=O)OC(C)(C)C | < 3.70 | < 3.70 | – | – | – | –
9 | COC(=O)c1c(O)cccc1OCCCCNC(=O)[C@H](Cc1ccc(N(CC(C)C(=O)O)C(=O)C(=O)O)cc1)NC(=O)OC(C)(C)C (stereo partly specified) | 5.49 | 4.78 | – | – | – | –
10 | COC(=O)c1c(O)cccc1OCCCCNC(=O)[C@H](Cc1ccc(OCC(=O)O)c(C(=O)O)c1)NC(C)=O | 5.03 | 3.89 | – | – | – | –
11 | COC(=O)c1c(O)cccc1OCCCCNC(=O)[C@H](Cc1ccc(OC(C)C(=O)O)c(C(=O)O)c1)NC(=O)OC(C)(C)C (stereo partly specified) | 4.31 | 3.56 | – | – | – | –
12 | COC(=O)c1c(O)cccc1OCCCCNC(=O)[C@H](Cc1ccc(OCC(=O)O)c(C(=O)O)c1)NC(=O)OC(C)(C)C | 5.68 | < 4.52 | – | – | – | –
13 | CCC(CN(C(=O)C(=O)O)c1ccc(C[C@H](NC(=O)OC(C)(C)C)C(=O)NCCCCOc2cccc(O)c2C(=O)OC)cc1)C(=O)O (stereo partly specified) | 5.77 | 5.05 | < 4.52 | < 4.52 | < 4.52 | < 4.52
